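In this assay, cells in 96-well plates receive the compound at five concentrations for 48 hours. Endpoints are linearly interpolated between the surrounding concentrations. At the TGI there is no net growth.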
Key:
Assay in all cases: NCI tumour cell line growth inhibition, 48 h
[1] = tested on: 786-0 renal
[2] = tested on: A498 renal
[3] = tested on: A549 NSCLC
[4] = tested on: ACHN renal
[5] = tested on: CAKI-1 renal
[6] = tested on: CCRF-CEM leukemia
[7] = tested on: COLO 205 colon
[8] = tested on: DLD-1 colon
[9] = tested on: DMS 114 small cell lung
[10] = tested on: DMS 273 small cell lung
[11] = tested on: EKVX NSCLC
[12] = tested on: HCC-2998 colon
[13] = tested on: HCT-116 colon
[14] = tested on: HCT-15 colon
[15] = tested on: HL-60(TB) leukemia
[16] = tested on: HOP-62 NSCLC
[17] = tested on: HOP-92 NSCLC
[18] = tested on: HT29 colon
[19] = tested on: IGROV1 ovarian
[20] = tested on: K-562 leukemia
[21] = tested on: KM12 colon
[22] = tested on: LOX IMVI melanoma
[23] = tested on: M14 melanoma
[24] = tested on: M19-MEL melanoma
[25] = tested on: MALME-3M melanoma
[26] = tested on: MOLT-4 leukemia
[27] = tested on: NCI-H23 lung
[28] = tested on: NCI-H460 lung
[29] = tested on: OVCAR-3 ovarian
[30] = tested on: OVCAR-4 ovarian
[31] = tested on: OVCAR-5 ovarian
[32] = tested on: OVCAR-8 ovarian
[33] = tested on: RPMI-8226 leukemia
[34] = tested on: RXF 393 renal
[35] = tested on: RXF-631 renal
[36] = tested on: SF-268 CNS
[37] = tested on: SF-295 CNS
[38] = tested on: SF-539 CNS
[39] = tested on: SK-MEL-2 melanoma
[40] = tested on: SK-MEL-28 melanoma
[41] = tested on: SK-MEL-5 melanoma
[42] = tested on: SK-OV-3 ovarian
[43] = tested on: SN12C renal
[44] = tested on: SNB-19 CNS
[45] = tested on: SNB-75 CNS
[46] = tested on: SNB-78 CNS
[47] = tested on: SW-620 colon
[48] = tested on: TK-10 renal
[49] = tested on: U251 CNS
[50] = tested on: UACC-257 melanoma
[51] = tested on: UACC-62 melanoma
[52] = tested on: UO-31 renal
[53] = tested on: XF 498 CNS
[54] = tested on: HOP-18 NSCLC
[55] = tested on: KM20L2 colon
[56] = tested on: LXFL 529 NSCLC
[57] = tested on: NCI-H226 lung
[58] = tested on: NCI-H522 lung
[59] = tested on: SR leukemia

CCCCSN1C(=O)c2ccccc2C1=S
TGI [1]: > 100 µM | TGI [2]: > 100 µM | TGI [3]: > 100 µM | TGI [4]: > 100 µM | TGI [5]: > 100 µM | TGI [6]: 53 µM | TGI [7]: > 100 µM | TGI [8]: > 100 µM | TGI [9]: > 100 µM | TGI [10]: > 100 µM | TGI [11]: > 100 µM | TGI [12]: > 100 µM | TGI [13]: > 100 µM | TGI [14]: > 100 µM | TGI [15]: 51.2 µM | TGI [16]: > 100 µM | TGI [17]: > 100 µM | TGI [18]: > 100 µM | TGI [19]: > 100 µM | TGI [20]: 69.5 µM | TGI [21]: > 100 µM | TGI [22]: > 100 µM | TGI [23]: > 100 µM | TGI [24]: > 100 µM | TGI [25]: > 100 µM | TGI [26]: 50.3 µM | TGI [27]: > 100 µM | TGI [28]: > 100 µM | TGI [29]: > 100 µM | TGI [30]: > 100 µM | TGI [31]: > 100 µM | TGI [32]: > 100 µM | TGI [33]: 49.4 µM | TGI [34]: > 100 µM | TGI [35]: > 100 µM | TGI [36]: > 100 µM | TGI [37]: > 100 µM | TGI [38]: > 100 µM | TGI [39]: > 100 µM | TGI [40]: > 100 µM | TGI [41]: > 100 µM | TGI [42]: > 100 µM | TGI [43]: > 100 µM | TGI [44]: > 100 µM | TGI [45]: > 100 µM | TGI [46]: > 100 µM | TGI [47]: > 100 µM | TGI [48]: > 100 µM | TGI [49]: > 100 µM | TGI [50]: > 100 µM | TGI [51]: > 100 µM | TGI [52]: > 100 µM | TGI [53]: > 100 µM

O=S1CSCS1 (centres undefined)
TGI [1]: > 100 µM | TGI [2]: > 100 µM | TGI [3]: > 100 µM | TGI [4]: > 100 µM | TGI [5]: > 100 µM | TGI [6]: > 100 µM | TGI [7]: > 100 µM | TGI [8]: > 100 µM | TGI [9]: > 100 µM | TGI [10]: > 100 µM | TGI [11]: > 100 µM | TGI [12]: > 100 µM | TGI [13]: > 100 µM | TGI [15]: > 100 µM | TGI [54]: > 100 µM | TGI [16]: > 100 µM | TGI [17]: > 100 µM | TGI [18]: > 100 µM | TGI [19]: > 100 µM | TGI [20]: > 100 µM | TGI [21]: > 100 µM | TGI [55]: > 100 µM | TGI [22]: > 100 µM | TGI [56]: > 100 µM | TGI [23]: > 100 µM | TGI [24]: > 100 µM | TGI [25]: > 100 µM | TGI [26]: > 100 µM | TGI [57]: > 100 µM | TGI [27]: > 100 µM | TGI [58]: > 100 µM | TGI [29]: > 100 µM | TGI [30]: > 100 µM | TGI [31]: > 100 µM | TGI [32]: > 100 µM | TGI [34]: > 100 µM | TGI [35]: > 100 µM | TGI [36]: > 100 µM | TGI [37]: > 100 µM | TGI [38]: > 100 µM | TGI [39]: > 100 µM | TGI [40]: > 100 µM | TGI [41]: > 100 µM | TGI [42]: > 100 µM | TGI [43]: > 100 µM | TGI [44]: > 100 µM | TGI [45]: > 100 µM | TGI [46]: > 100 µM | TGI [59]: > 100 µM | TGI [47]: > 100 µM | TGI [48]: > 100 µM | TGI [49]: > 100 µM | TGI [50]: > 100 µM | TGI [51]: > 100 µM | TGI [52]: > 100 µM | TGI [53]: > 100 µM
